Tested on: DGAT
Assay: DGAT Phospholipid FlashPlate Assay
Assay type: biochemical
Settings: DGAT pellet, DAG-coated PL-FlashPlate, 14C-Pal-CoA, 37° C. for 1 hour; read-out: DGAT Inhibition Activity IC50
Protocol: DGAT Phospholipid FlashPlate Assay
Materials for the assay were: PL-FlashPlate: Phospholipid FlashPlates from PerkinElmer, catalog number SMP108; DAG (1,2-Dioleoyl-sn-glycerol) 10 mM suspended in water containing 0.1% Triton X-100; ^14C-Pal-CoA (palmitoyl coenzyme A, [palmitoyl-1-^14C]) from PerkinElmer, catalog number NEC-555 with a specific activity of 55 mCi/mmol; and DGAT pellet, with a protein concentration of 9.85 mg/ml.
Aqueous buffers were prepared or purchased as follows: The coating buffer (CB) was purchased from PerkinElmer, catalog number SMP900A; the reaction buffer (RB) was 50 mM Tris-HCl, pH 7.5, 100 mM NaCl, 0.01% BSA in water; the washing buffer (WB) is 50 mM Tris-HCl, pH 7.5, 100 mM NaCl, 0.05% deoxycholic acid sodium salt in water; the dilution buffer (DB) was 50 mM Tris-HCl, pH 7.5, 100 mM NaCl, 1 mM EDTA, 0.2% Triton X-100 in water.
1,2-Dioleoyl-sn-glycerol (DAG, 10 mmoles) was diluted to 500 μM with coating buffer (CB). The diluted DAG solution was then added to 384-well PL-FlashPlates at 60 μl per well, and incubated at room temperature for 2 days. The coated plates were then washed twice with washing buffer (WB) before use. Test compounds were serial diluted to 2000, 666.7, 222.2, 74.1, 24.7, 8.2, 2.7 and 0.9 μM in 100% DMSO. Diluted compound were further diluted 10 fold with reaction buffer (RB). ^14C-Pal-CoA was diluted to 8.3 μM with RB. The DGAT pellet was diluted to 0.13 mg protein/ml with dilution buffer (DB) immediately before it was added to the PL-FlashPlates to start the reaction. 20 μl of the RB-diluted compounds (or 10% DMSO in RB for Total and Blank), 15 μl of RB diluted 14C-Pal-CoA and 15 μl of DB diluted DGAT pellet (DB without DGAT for Blanks) were transferred to each well of the PL-FlashPlates. The reaction mixtures were incubated at 37° C. for 1 hour. The reactions were stopped by washing 3 times with WB. Plates were sealed with Top-seal and read on a Topcount instrument.
Calculation of IC50: The IC50 values for each compound were generated using an Excel template. The Topcount rpm readings of Total and Blank were used as 0% and 100% inhibition. The percent inhibition values of reactions in the presence of compounds were calculated, and plotted against compound concentrations. All data were fitted into a Dose Response One Site model (4 parameter logistic model) as the following: (A+((B−A)/(1+((x/C)^D)))), with A and B as the bottom and top of the curve (highest and lowest inhibition), respectively, and C as IC50 and D as Hill Coefficient of the compound.

Compound | IC50 [nM]
CC(C)(C)OC(=O)N1CCN(c2ccc(NC(=O)c3cc4c(Cl)cccc4s3)cn2)CC1 [Example 1, 4-{5-[(4-Chloro-benzo[b]thiophene-2-carbonyl)-amino]-pyridin-2-yl}-piperazine-1-carboxylic acid tert-butyl ester] | 292
CC(C)(CC(=O)N1CCN(c2ccc(NC(=O)c3cc4c(Cl)cccc4s3)cn2)CC1)C(=O)O [Example 2, 4-(4-{5-[(4-Chloro-benzo[b]thiophene-2-carbonyl)-amino]-pyridin-2-yl}-piperazin-1-yl)-2,2-dimethyl-4-oxo-butyric acid] | 32
CC(C)(C)OC(=O)N1CCN(c2ccc(NC(=O)c3cc4cc(Br)ccc4s3)cn2)CC1 [Example 3, 4-{5-[(5-Bromo-benzo[b]thiophene-2-carbonyl)-amino]-pyridin-2-yl}-piperazine-1-carboxylic acid tert-butyl ester] | 479
CC(C)(CC(=O)N1CCN(c2ccc(NC(=O)c3cc4cc(Br)ccc4s3)cn2)CC1)C(=O)O [Example 4, 4-(4-{5-[(5-Bromo-benzo[b]thiophene-2-carbonyl)-amino]-pyridin-2-yl}-piperazin-1-yl)-2,2-dimethyl-4-oxo-butyric acid] | 85
CCOc1cccc2c1cc(C(=O)Nc1ccc(N3CCN(C(=O)OC(C)(C)C)CC3)nc1)n2CC [Example 5, 4-{5-[(4-Ethoxy-1-ethyl-1H-indole-2-carbonyl)-amino]-pyridin-2-yl}-piperazine-1-carboxylic acid tert-butyl ester] | 180
CCOc1cccc2c1cc(C(=O)Nc1ccc(N3CCN(C(=O)CC(C)(C)C(=O)O)CC3)nc1)n2CC [Example 6, 4-(4-{5-[(4-Ethoxy-1-ethyl-1H-indole-2-carbonyl)-amino]-pyridin-2-yl}-piperazin-1-yl)-2,2-dimethyl-4-oxo-butyric acid] | 189
CCOc1cccc2c1cc(C(=O)Nc1ccc(C3CCN(C(=O)CC(C)(C)C(=O)O)CC3)cc1)n2CC [Example 7, 4-(4-{4-[(4-Ethoxy-1-ethyl-1H-indole-2-carbonyl)-amino]-phenyl}-piperidin-1-yl)-2,2-dimethyl-4-oxo-butyric acid] | 316
CCn1c(C(=O)Nc2ccc(C3CCN(C(=O)CC(C)(C)C(=O)O)CC3)cc2)cc2c(C)cccc21 [Example 8, 4-(4-{4-[(1-Ethyl-4-methyl-4H-indole-2-carbonyl)-amino]-phenyl}-piperidin-1-yl)-2,2-dimethyl-4-oxo-butyric acid] | 528
CCn1c(C(=O)Nc2ccc(C3CCN(C(=O)CC(C)(C)C(=O)O)CC3)cc2)cc2c(Cl)c(Cl)ccc21 [Example 9, 4-(4-{4-[(4,5-Dichloro-ethyl-1H-indole-2-carbonyl)-amino]-phenyl}-piperidin-1-yl)-2,2-dimethyl-4-oxo-butyric acid] | 333
CCCOc1cccc2c1cc(C(=O)Nc1ccc(N3CCN(C(=O)OC(C)(C)C)CC3)nc1)n2CC [Example 10, 4-{5-[(1-Ethyl-4-propoxy-1,1-indole-2-carbonyl)-amino]-pyridin-2-yl}-piperazine-1-carboxylic acid tert-butyl ester] | 328
CCCOc1cccc2c1cc(C(=O)Nc1ccc(N3CCN(C(=O)CC(C)(C)C(=O)O)CC3)nc1)n2CC [Example 11, 4-(4-{5-[(1-Ethyl-4-propoxy-1H-indole-2-carbonyl)-amino]-pyridin-2-yl}-piperazin-1-yl)-2,2-dimethyl-4-oxo-butyric acid] | 105
CCn1c(C(=O)Nc2ccc(N3CCN(C(=O)OC(C)(C)C)CC3)nc2)cc2c(OCC(C)C)cccc21 [Example 12, 4-{5-[(1-Ethyl-4-isobutoxy-1H-indole-2-carbonyl)-amino]-pyridin-2-yl}-piperazine-1-carboxylic acid tert-butyl ester] | 273
CCn1c(C(=O)Nc2ccc(N3CCN(C(=O)CC(C)(C)C(=O)O)CC3)nc2)cc2c(OCC(C)C)cccc21 [Example 13, 4-(4-{5-[(1-Ethyl-4-isobutoxy-1H-indole-2-carbonyl)-amino]-pyridin-2-yl}-piperazin-1-yl)-2,2-dimethyl-4-oxo-butyric acid hydrochloric acid] | 283
CCn1c(C(=O)Nc2ccc(N3CCN(C(=O)OC(C)(C)C)CC3)nc2)cc2c(C(F)(F)F)cccc21 [Example 14, 4-{5-[(1-Ethyl-4-trifluoromethyl-1H-indole-2-carbonyl)-amino]-pyridin-2-yl}-piperazine-1-carboxylic acid tert-butyl ester] | 433
CCn1c(C(=O)Nc2ccc(N3CCN(C(=O)CC(C)(C)C(=O)O)CC3)nc2)cc2c(C(F)(F)F)cccc21 [Example 15, 4-(4-{5-[(1-Ethyl-4-trifluoromethyl-1H-indole-2-carbonyl)-amino]-pyridin-2-yl}-piperazin-1-yl)-2,2-dimethyl-4-oxo-butyric acid] | 183
CCn1c(C(=O)Nc2ccc(N3CCN(C(=O)OC(C)(C)C)CC3)nc2)cc2c(OC)cc(OC)cc21 [Example 16, 4-{5-[(1-Ethyl-4,6-dimethoxy-1H-indole-2-carbonyl)-amino]-pyridin-2-yl}-piperazine-1-carboxylic acid tert-butyl ester] | 248
CCn1c(C(=O)Nc2ccc(N3CCN(C(=O)CC(C)(C)C(=O)O)CC3)nc2)cc2c(OC)cc(OC)cc21 [Example 17, 4-(4-{5-[(1-Ethyl-4,6-dimethoxy-1H-indole-2-carbonyl)-amino]-pyridin-2-yl}-piperazin-1-yl)-2,2-dimethyl-4-oxo-butyric acid] | 270
CCn1c(C(=O)Nc2ccc(N3CCN(C(=O)OC(C)(C)C)CC3)nc2)cc2c(Cl)c(Cl)ccc21 [Example 18, 4-{5-[(4,5-Dichloro-1-ethyl-1H-indole-2-carbonyl)-amino]-pyridin-2-yl}-piperazine-1-carboxylic acid tert-butyl ester] | 255
CCn1c(C(=O)Nc2ccc(N3CCN(C(=O)CC(C)(C)C(=O)O)CC3)nc2)cc2c(Cl)c(Cl)ccc21 [Example 19, 4-(4-{5-[(4,5-Dichloro-1-ethyl-1H-indole-2-carbonyl)-amino]-pyridin-2-yl}-piperazin-1-yl)-2,2-dimethyl-4-oxo-butyric acid] | 80
CCn1c(C(=O)Nc2ccc(N3CCN(C(=O)OC(C)(C)C)CC3)nc2)cc2c(OC)cccc21 [Example 20, 4-{5-[(1-Ethyl-4-methoxy-1H-indole-2-carbonyl)-amino]-pyridin-2-yl}-piperazine-1-carboxylic acid tert-butyl ester] | 84
CCOC(=O)N1CCN(c2ccc(NC(=O)c3cc4c(OC)cccc4n3CC)cn2)CC1 [Example 21, 4-{5-[(1-Ethyl-4-methoxy-1H-indole-2-carbonyl)-amino]-pyridin-2-yl}-piperazine-1-carboxylic acid ethyl ester] | 282
CCn1c(C(=O)Nc2ccc(N3CCN(C(=O)OC(C)(C)C)CC3)nc2)cc2c(OC)c(OC)ccc21 [Example 22, 4-{5-[(1-Ethyl-4,5-dimethoxy-1H-indole-2-carbonyl)-amino]-pyridin-2-yl}-piperazine-1-carboxylic acid tert-butyl ester] | 86
CCn1c(C(=O)Nc2ccc(N3CCN(C(=O)OC(C)(C)C)CC3)nc2)cc2cc(Cl)ccc21 [Example 23, 4-{5-[(5-Chloro-1-ethyl-1H-indole-2-carbonyl)-amino]-pyridin-2-yl}-piperazine-1-carboxylic acid tert-butyl ester] | 571

Reference: US8124766B2, “Inhibitors of diacylglycerol acyltransferase” (Madrigal Pharmaceuticals, Inc., priority 2008, dated 2012)
